Data reported in article PMC5425475 (Frontiers in Systems Neuroscience, 2017).
Values joined by “and” are separate entries in the source; they are usually repeats but may differ in a detail not shown here. Equal entries are not always repeated. “Also recorded” adds a separate entry of the source. Where two headings read alike, the source gives them in different places.

How the values were obtained:
[1] = target: T1, Dm5-HT2B (Drosophila melanogaster, UniProt Q8INQ6); test: Ca2+ fluorimetry (Fluo-4), antagonists on serotonin-stimulated Dm5-HT2B-expressing HEK 293 cells; type: cell-based; details: for effect on serotonin-stimulated Dm5-HT2B-expressing cells: 10^-9 M to 10^-4 M antagonist on 10^-7 M serotonin; for Maximal inhibition: relative efficacy, signal with 10^-7 M serotonin = 100%
Method: (§1) The ability of the Dm5-HT2B-HA receptor (hereafter referred to as Dm5-HT2B) to activate Gq proteins was assessed by monitoring changes in [Ca^2+]i with the Ca^2+-sensitive fluorescent dye Fluo-4 (Invitrogen). Non-transfected HEK 293 cells and cells expressing Dm5-HT2B were grown in minimal essential medium (MEM + GlutaMAX^TMI (Gibco/ThermoFisher Scientific, Darmstadt, Germany) containing 2% (w/v) Utroser^TM G (Pall, Dreieich, Germany), 1 × non-essential amino acids and 1 × antibiotics/antimycotics) in 96-well plates to a density of ∼3 × 10^4 cells per well. In this format, each vertical row (=8 wells) of the 96-well plate is incubated with the same ligand concentration. Cells were loaded at room temperature with Fluo-4 as described earlier ([Thamm et al., 2013]; [Blankenburg et al., 2015]) in extracellular solution [ES = in mM: 120 NaCl, 5 KCl, 2 MgCl2, 2 CaCl2, 10 HEPES, 10 Glucose, pH 7.4 (NaOH)]. Plates were transferred into a fluorescence reader (FLUOstar Galaxy/Optima; BMG Labtech, Offenburg, Germany) to monitor Fluo-4 fluorescence. The excitation wavelength was 485 nm, and fluorescence emission was detected at 520 nm. Various concentrations of biogenic amines and synthetic receptor ligands were added, once Fluo-4 fluorescence had reached a stable value in each well. The changes in Fluo-4 fluorescence were recorded automatically. Concentration-response curves for putative agonists/antagonists were established in at least two independent experiments with octuplicate determinations (s.a.) per data point.
Next, we examined the ability of potential receptor antagonists for impairing Dm5-HT2B activity.

[2] = target: T1, Dm5-HT2B; test: Ca2+ fluorimetry (Fluo-4), agonist activation of Dm5-HT2B expressed in HEK 293 cells; type: cell-based; details: for change in Ca2+-dependent Fluo-4 fluorescence: biogenic amines 1 μM each
Method: Stably transfected cells were selected in the presence of the antibiotic G418 (0.8 mg/ml). Isolated foci were propagated and analyzed for the expression of Dm5-HT2B-HA receptor either by immunocytochemistry, Western blotting or by functional Ca^2+ imaging upon receptor activation.
as §1, with “Cells were loaded at room temperature with Fluo-4 as described earlier ([Thamm et al., 2013]; [Blankenburg et al., 2015]) in extracellular solution [ES = in mM: 120 NaCl, 5 KCl, 2 MgCl2, 2 CaCl2, 10 HEPES, 10 Glucose, pH 7.4 (NaOH)].” left out, “The excitation wavelength was 485 nm, and fluorescence emission was detected at 520 nm.” left out

[3] = tested on: non-transfected HEK 293 cells; test: Ca2+ fluorimetry (Fluo-4) in non-transfected HEK 293 cells (control); type: cell-based; details: for change in Ca2+-dependent Fluo-4 fluorescence: biogenic amines 1 μM each
Method: as §1

[4] = tested on: Am5-HT2A; design: method as in Thamm et al., 2013; details: ref Thamm et al., 2013, cited from earlier work; for EC50: Am5-HT2A in HEK 293 cells
[5] = tested on: Am5-HT2B; design: method as in Thamm et al., 2013; details: ref Thamm et al., 2013, cited from earlier work; for EC50: Am5-HT2B in HEK 293 cells; for Ca2+-dependent fluorescence blocked to: residual signal
[6] = tested on: Cv5-HT2A; design: method as in Röser et al., 2012; details: ref Röser et al., 2012, cited from earlier work; for EC50: Cv5-HT2A in HEK 293 cells
[7] = tested on: Rp5-HT2B; design: method as in Paluzzi et al., 2015; details: ref Paluzzi et al., 2015, cited from earlier work; for receptor activity reduced by: Rp5-HT2B, highest of three concentrations tested (10^-7, 10^-6, 10^-5 M)
[8] = target: tyramine receptor TyrR (CG7431); design: method as in Arakawa et al., 1990; details: ref Arakawa et al., 1990; cited from earlier work
[9] = tested on: β-adrenergic-like octopamine receptor Octβ3R (CG42244); design: method as in Maqueira et al., 2005; details: only 10^-5 M tested; ref Maqueira et al., 2005; cited from earlier work
[10] = target: T1, Dm5-HT2B; design: method as in Gasque et al. (2013); details: Dm5-HT2B in HEK 293T cells, individual cells; ref Gasque et al. (2013); cited from earlier work
[11] = tested on: D. melanogaster larvae; design: method as in Gasque et al., 2013; details: ref Gasque et al., 2013; cited from earlier work
[12] = background of 10^-7 M serotonin, Dm5-HT2B-expressing HEK 293 cells

T1 sequence (Q8INQ6 entry or part of it): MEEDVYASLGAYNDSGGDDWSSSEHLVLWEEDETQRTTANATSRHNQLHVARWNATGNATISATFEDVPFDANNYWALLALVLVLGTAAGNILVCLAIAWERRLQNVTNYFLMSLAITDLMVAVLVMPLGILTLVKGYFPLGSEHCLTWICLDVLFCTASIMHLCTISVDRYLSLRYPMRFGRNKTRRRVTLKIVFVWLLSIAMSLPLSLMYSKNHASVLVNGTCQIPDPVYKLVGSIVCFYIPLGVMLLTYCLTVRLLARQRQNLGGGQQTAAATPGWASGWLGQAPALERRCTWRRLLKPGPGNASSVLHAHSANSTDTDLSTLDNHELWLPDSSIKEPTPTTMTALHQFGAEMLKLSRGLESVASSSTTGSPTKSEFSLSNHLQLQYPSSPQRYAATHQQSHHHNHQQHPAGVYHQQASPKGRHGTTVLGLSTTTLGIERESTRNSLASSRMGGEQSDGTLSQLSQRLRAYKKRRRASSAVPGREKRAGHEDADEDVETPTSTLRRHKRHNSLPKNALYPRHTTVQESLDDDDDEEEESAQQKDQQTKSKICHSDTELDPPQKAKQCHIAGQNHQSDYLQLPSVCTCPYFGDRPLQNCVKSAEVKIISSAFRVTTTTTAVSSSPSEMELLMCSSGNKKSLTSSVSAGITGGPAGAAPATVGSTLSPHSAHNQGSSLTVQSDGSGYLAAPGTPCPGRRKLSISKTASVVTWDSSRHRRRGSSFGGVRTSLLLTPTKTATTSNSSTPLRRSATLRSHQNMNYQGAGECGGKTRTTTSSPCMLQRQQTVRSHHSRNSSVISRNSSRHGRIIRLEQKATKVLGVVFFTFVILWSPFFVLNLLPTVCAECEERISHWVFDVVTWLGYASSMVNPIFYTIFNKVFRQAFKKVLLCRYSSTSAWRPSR

## O=C(CCCN1CCC2(CC1)C(=O)NCN2c1ccccc1)c1ccc(F)cc1 [Spiperone, spiperone]
[1]
  effect on serotonin-stimulated Dm5-HT2B-expressing cells: caused a reduction of the cellular response; also recorded: the responses did not saturate
  Maximal inhibition: 25%
[1]; [12]
  IC50: no saturation

## NCCc1c[nH]c2ccc(O)cc12 [serotonin, 5-hydroxytryptamine]
[2]; Dm5-HT2B-expressing cells
  concentration at which the concentration-response curve saturated: 30 µM
  change in Ca2+-dependent Fluo-4 fluorescence: increase in the fluorescence signal
[3]; 10^-4 M
  fluorescence signal at the highest ligand concentration: slight increase in the fluorescence signal
[3]
  change in Ca2+-dependent Fluo-4 fluorescence: not in non-transfected cells
[4]
  EC50: 25.7 nM
[5]
  EC50: 32.5 nM
[6]
  EC50: 24 nM
[7]; Rp5-HT2B in CHOK1-aeq cells
  EC50: 201 nM

## CN1CCN2c3ccccc3Cc3ccccc3C2C1 (stereo not drawn) [Mianserin, mianserin]
[4]; Am5-HT2A
  serotonin-induced Ca2+-dependent fluorescence reduced by: 49%
[5]; Am5-HT2B
  Ca2+-dependent fluorescence blocked to: 24%
[7]
  receptor activity reduced by: ≥ 50%

## CN1CCC(=C2c3ccccc3C=Cc3ccccc32)CC1 [Cyproheptadine, cyproheptadine]
[4]; Am5-HT2A
  serotonin-induced Ca2+-dependent fluorescence reduced by: 36%
[5]; Am5-HT2B
  Ca2+-dependent fluorescence blocked to: 23%
[7]
  receptor activity reduced by: ≥ 50%

## NCCc1ccc(O)cc1 [tyramine]
[2]; Dm5-HT2B-expressing cells
  change in Ca2+-dependent Fluo-4 fluorescence: Neither dopamine, octopamine nor tyramine evoked responses
[3]
  change in Ca2+-dependent Fluo-4 fluorescence: Neither dopamine, octopamine nor tyramine evoked responses

## O=C(c1ccc(F)cc1)C1CCN(CCn2c(=O)[nH]c3ccccc3c2=O)CC1 [Ketanserin, ketanserin]
[1]
  effect on serotonin-stimulated Dm5-HT2B-expressing cells: did not observe any effect; also recorded: completely lacked inhibitory potential
[1]; [12]
  IC50: no effect
[7]
  receptor activity reduced by: ≥ 50%

## CCN(CC)CCNC(=O)c1cc(Cl)c(N)cc1OC [Metoclopramide, metoclopramide]
[1]; background of 10^-7 M serotonin, Dm5-HT2B-expressing HEK 293 cells, read-out: IC50
  IC50: 1.59e-08 M
[1]; logarithm of the IC50 (M), background of 10^-7 M serotonin, read-out: Log IC50 ± SD (converted)
  IC50: 1.58e-08 M
[1]
  Maximal inhibition: 60%
[1]; residual signal at maximal inhibition
  serotonin-evoked Ca2+ response reduced to % of control measurements without antagonist: 40%
[8]
  Ki: 4.6 µM
[9]
  effect on receptor: block

## NCCc1ccc(O)c(O)c1 [dopamine]
[2]; Dm5-HT2B-expressing cells
  change in Ca2+-dependent Fluo-4 fluorescence: Neither dopamine, octopamine nor tyramine evoked responses
[3]
  change in Ca2+-dependent Fluo-4 fluorescence: Neither dopamine, octopamine nor tyramine evoked responses

## NCCc1c[nH]cn1 [histamine]
[2]; Dm5-HT2B-expressing cells
  change in Ca2+-dependent Fluo-4 fluorescence: caused a rise in Ca^2+-dependent Fluo-4 fluorescence
[3]
  change in Ca2+-dependent Fluo-4 fluorescence: caused a rise in Ca^2+-dependent Fluo-4 fluorescence

## CCCN(CCC)C1CCc2cccc(O)c2C1 (stereo not drawn) [8-OH-DPAT, 8-Hydroxy-2-(di-n-propylamino)tetralin]
[2]
  EC50: ~650000 nM
[4]
  EC50: 55900 nM
[5]
  EC50: 560 nM
[6]
  EC50: 62000 nM

## COc1ccc2[nH]cc(CCN)c2c1 [5-methoxytryptamine]
[2]; EC50 (half-maximal activation of Dm5-HT2B), Dm5-HT2B-expressing HEK 293 cells, Fluo-4 fluorescence, concentrations 10^-9 M to 10^-4 M
  EC50: 1050 nM and ~1000 nM
[4]
  EC50: 70 nM
[5]
  EC50: 60.4 nM
[6]
  EC50: 67 nM

## CC[C@@H](CO)NC(=O)[C@@H]1C=C2c3cccc4c3c(cn4C)C[C@H]2N(C)C1 [Methysergide, methysergide]
[1]
  effect on serotonin-stimulated Dm5-HT2B-expressing cells: did not observe any effect; also recorded: completely lacked inhibitory potential
[1]; [12]
  IC50: no effect

## NCC(O)c1ccc(O)cc1 (stereo not drawn) [octopamine]
[2]; Dm5-HT2B-expressing cells
  change in Ca2+-dependent Fluo-4 fluorescence: Neither dopamine, octopamine nor tyramine evoked responses
[3]
  change in Ca2+-dependent Fluo-4 fluorescence: Neither dopamine, octopamine nor tyramine evoked responses

## Cc1cc2c(cc1Cl)N(C(=O)Nc1ccc(Oc3cccnc3C)nc1)CC2 [SB 242084]
[1]
  effect on serotonin-stimulated Dm5-HT2B-expressing cells: did not observe any effect; also recorded: completely lacked inhibitory potential
[1]; [12]
  IC50: no effect

## CSc1ccc2c(c1)C(N1CCN(C)CC1)Cc1ccccc1S2 (stereo not drawn) [Metitepine, metitepine]
[1]; IC50, background of 10^-7 M serotonin, Dm5-HT2B-expressing HEK 293 cells
  IC50: 3.56e-06 M
[1]; Log IC50 ± SD, logarithm of the IC50 (M), background of 10^-7 M serotonin
  IC50: 3.55e-06 M
[1]
  Maximal inhibition: 35%
[4]; Am5-HT2A
  inhibition range (IC50): micromolar range
  serotonin-induced Ca2+-dependent fluorescence reduced by: 39%
[5]; Am5-HT2B
  antagonist activity: did not have any activity at all
[6]; Cv5-HT2A
  IC50: 1200 nM
  serotonin-induced Ca2+ signals reduced to % of control measurements: 15%
[10]
  IC50: 2000 nM
[11]
  effect on food intake: potent anorectic drug

## COc1cc2nc(N3CCN(C(=O)c4ccco4)CC3)nc(N)c2cc1OC [Prazosin, prazosin]
[1]
  effect on serotonin-stimulated Dm5-HT2B-expressing cells: caused a reduction of the cellular response; also recorded: the responses did not saturate
  Maximal inhibition: 50%
[1]; [12]
  IC50: no saturation

## CN1CCN(C2=Nc3cc(Cl)ccc3Nc3ccccc32)CC1 [Clozapine, clozapine]
[5]; Am5-HT2B
  Ca2+-dependent fluorescence blocked to: 5%
